Data taken from patent US11007155B2, “Method for producing a sea urchin extract enriched with 1,4-polyhydroxylated naphthoquinones with antimicrobial and antioxidant activity” (Universidad Técnica Federico Santa María, priority 2016, dated 2021).
In brackets after ≈: the same amount, converted by molar mass. Where two headings read alike, the source gives them in different places.

Columns and labels:
[1] = tested on: E. coli; experiment: Antibacterial activity (MIC) against clinical isolates; type: cell-based; settings: Escherichia coli
Description: (§1) In order to test the antibiotic activity of these compounds, the inventors studied the antibacterial activity, measured as minimum inhibitory concentration (MIC), of the black sea urchin (Tetrapygus niger) extract enriched in equinochrome A (85% purity) and the purified EqA.

[2] = tested on: Klebsiella oxytica; experiment: as above; type: cell-based; settings: resistant to ampicillin
Description: as §1

[3] = tested on: Klebsiella pneumoniae; experiment: as above; type: cell-based; settings: resistant to ampicillin, aztreonam, cephalothin, cefepime, cefotaxime, ceftazidime
Description: as §1

[4] = tested on: Pseudomona aeruginosa; experiment: as above; type: cell-based
Description: as §1

[5] = tested on: S. aureus; experiment: as above; type: cell-based; settings: Staphylococcus aureus, resistant to penicillin
Description: as §1

[6] = DPPH radical capture assay (antioxidant activity)
Description: The antioxidant activity of EqA is dependent on the concentration of the pigment, the pH and the concentration of calcium. In the absence of calcium, the antioxidant activity is observed only at alkaline pH, but in the presence of calcium, the antioxidant activity is observed at alkaline pH and neutral pH, by the formation of stable semiquinone-calcium complexes (Levedeb et al., Archives of Biochemistry and Biophysics (2003) 413: 191-198). The invention is illustrated in the following examples:
The antioxidant activity of the purified extract and equinochrome A was evaluated by the DPPH radical capture assay (2, 2-diphenyl-1-picryihydracil) (Shankarlal et al., (2011) Am-Euras, J. Sci. Res. 6:178-181).

[7] = Storage stability of the product; type: physicochemical; settings: stored at −20° C
Description: The process of the invention begins with spawning, which is induced by injection of KCl (0.5 M) into the perivisceral coelom. The induced urchin females are deposited on a smaller diameter vessel, which contains filtered and sterile seawater, where the eggs are received. The collected eggs are filtered, preferably using a fine sieve of pore size 1/32 inches (0.079375 centimeters) to remove impurities. Afterwards it is washed with filtered and sterile seawater. The excess water is subsequently removed by decanting the eggs. Then the eggs are dried at 60-80° C. for 24-72 hours, and are ground to a fine powder, which is cleaned by passing through a sieve of pore size 1/120 inches (0.021 centimeters). The product is then extracted by mixing the powder with methanol or ethanol at a proportion of 1:30 v/v under constant agitation. It is further filtered to remove the egg debris and evaporated under vacuum at 55° C. to 1/10 of the initial volume. The resulting extract is purified by chromatography with a C18 RP column, elution with 30-40% methanol to extract mainly spinochrome E, and finally an elution with 100% ethanol for the extraction of EqA.

CCc1c(O)c(O)c2c(c1O)C(=O)C(O)=C(O)C2=O [EqA, 6-ethyl-2,3,5,7,8-pentahydroxy-1,4-naphthoquinone]
MIC ([1]; pH 5, pH 5, hemocultivo isolate, antibiotic resistance —): 32 µg/mL (≈ 120 µM)
MIC ([1]; pH 5, pH 5, hemocultivo isolate, resistant to ampicillin, chloramphenicol, cotrimoxazole): 32 µg/mL (≈ 120 µM)
MIC ([1]; pH 5, pH 5, urine isolate, resistant to ampicillin, aztreonam, cefepime, cefotaxime, ceftazidime, ciprofloxacin): 32 µg/mL (≈ 120 µM)
MIC ([1]; pH 7, pH 7, hemocultivo isolate, antibiotic resistance —): > 64 µg/mL
MIC ([1]; pH 7, pH 7, hemocultivo isolate, resistant to ampicillin, chloramphenicol, cotrimoxazole): > 64 µg/mL
MIC ([1]; pH 7, pH 7, urine isolate, resistant to ampicillin, aztreonam, cefepime, cefotaxime, ceftazidime, ciprofloxacin): 64 µg/mL (≈ 240 µM)
MIC ([2]; pH 5, hemocultivo isolate): 64 µg/mL (≈ 240 µM)
MIC ([2]; pH 7, hemocultivo isolate): > 64 µg/mL
MIC ([3]; Klebsiella pneumoniae, pH 5, urine isolate, ertapenem, nitrofurantoin, read-out: MIC): 64 µg/mL (≈ 240 µM)
MIC ([3]; Klebsiella pneumoniae, pH 7, urine isolate, ertapenem, nitrofurantoin, read-out: MIC): > 64 µg/mL
MIC ([3]; pH 5, hemocultivo isolate, ciprofloxacin, chloramphenicol, colistin, cotrimoxazole, gentamicin): 64 µg/mL (≈ 240 µM)
MIC ([3]; pH 5, urine isolate, nitrofurantoin): 64 µg/mL (≈ 240 µM)
MIC ([3]; pH 7, hemocultivo isolate, ciprofloxacin, chloramphenicol, colistin, cotrimoxazole, gentamicin): >64 µg/mL
MIC ([3]; pH 7, urine isolate, nitrofurantoin): >64 µg/mL
MIC ([4]; pH 5, pH 5, aspirado traqueal isolate, resistant to ampicillin, aztreonam, cefepime, ceftazidime, imipenem, meropenem): 32 µg/mL (≈ 120 µM)
MIC ([4]; pH 5, pH 5, aspirado traqueal isolate, resistant to ampicillin, aztreonam, ceftazidime, imipenem, meropenem): 64 µg/mL (≈ 240 µM)
MIC ([4]; pH 5, pH 5, aspirado traqueal isolate, resistant to ampicillin, ciprofloxacin, imipenem, meropenem): 32 µg/mL (≈ 120 µM)
MIC ([4]; pH 5, pH 5, cateter isolate, resistant to ampicillin, aztreonam, cefepime, ceftazidime, imipenem, meropenem): 32 µg/mL (≈ 120 µM)
MIC ([4]; pH 5, pH 5, hemocultivo isolate, resistant to cefepime, ceftazidime, ciprofloxacin, gentamicin): 32 µg/mL (≈ 120 µM)
MIC ([4]; pH 7, pH 7, aspirado traqueal isolate, resistant to ampicillin, aztreonam, cefepime, ceftazidime, imipenem, meropenem): > 64 µg/mL
MIC ([4]; pH 7, pH 7, aspirado traqueal isolate, resistant to ampicillin, aztreonam, ceftazidime, imipenem, meropenem): > 64 µg/mL
MIC ([4]; pH 7, pH 7, aspirado traqueal isolate, resistant to ampicillin, ciprofloxacin, imipenem, meropenem): > 64 µg/mL
MIC ([4]; pH 7, pH 7, cateter isolate, resistant to ampicillin, aztreonam, cefepime, ceftazidime, imipenem, meropenem): > 64 µg/mL
MIC ([4]; pH 7, pH 7, hemocultivo isolate, resistant to cefepime, ceftazidime, ciprofloxacin, gentamicin): > 64 µg/mL
MIC ([5]; pH 5, pH 5, hemocultivo isolate (1st, r13)): 8 µg/mL (≈ 30.1 µM)
MIC ([5]; pH 5, pH 5, hemocultivo isolate (2nd, r14)): 8 µg/mL (≈ 30.1 µM)
MIC ([5]; pH 5, pH 5, hemocultivo isolate (3rd, r15)): 8 µg/mL (≈ 30.1 µM)
MIC ([5]; pH 5, pH 5, hemocultivo isolate, oxacillin, erythromycin, clindamycin, ciprofloxacin): 32 µg/mL (≈ 120 µM)
MIC ([5]; pH 5, pH 5, isolate from tracheal aspirate): 8 µg/mL (≈ 30.1 µM)
MIC ([5]; pH 7, pH 7, hemocultivo isolate (1st, r13)): 32 µg/mL (≈ 120 µM)
MIC ([5]; pH 7, pH 7, hemocultivo isolate (2nd, r14)): 32 µg/mL (≈ 120 µM)
MIC ([5]; pH 7, pH 7, hemocultivo isolate (3rd, r15)): 32 µg/mL (≈ 120 µM)
MIC ([5]; pH 7, pH 7, hemocultivo isolate, oxacillin, erythromycin, clindamycin, ciprofloxacin): 32 µg/mL (≈ 120 µM)
MIC ([5]; pH 7, pH 7, isolate from tracheal aspirate): 32 µg/mL (≈ 120 µM)
EC50 [6]: 13 µM
antioxidant activity compared with reference antioxidants [6]: greater than the antioxidant activities of α-tocopherol and ascorbic acid
storage stability [7]: high stability for months

O=C1O[C@H]([C@@H](O)CO)C(O)=C1O [ascorbic acid, reference compound]
EC50 [6]: 45 µM

Cc1c(C)c2c(c(C)c1O)CC[C@@](C)(CCC[C@H](C)CCC[C@H](C)CCCC(C)C)O2 [α-tocoferol, reference compound]
EC50 [6]: 100 µM
